Results as given in article PMC8568920, “Serum apolipoprotein A-I potentiates the therapeutic efficacy of lysocin E against Staphylococcus aureus” (Nature Communications, 2021).
Converted amounts (≈) assume the structure as drawn. Where a SMILES comes first, the peptide text is derived from it. Bridges are numbered along the chain shown (N, C = ends). [ ]: non-standard residue; d: D form. The star is where a group is joined. Hexanoyl(3R-OH,5-Me) = CC(C)C[C@@H](O)CC(=O)*; dNMeF = CN[C@H](Cc1ccccc1)C(=O)O

How the values were obtained:
in vitro = conditions: human plasma
Experimental: (§1) The antimicrobial activities of the compounds were measured using the microdilution method. Measurement of the bactericidal activity of lysocin E (0.25 µg ml^−1) and nisin (2 µg ml^−1) with or without ApoA-I was performed according to the National Committee for Clinical Laboratory Standards method. […] For the ∆menA and ∆menB strains, TSB medium was used instead of cation-adjusted-Mueller Hinton broth (CA-MHB) in the microdilution method. Sera and ApoA-I, II were added to the bacterial culture before distributing them into 96-well plates. ApoA-I and ApoA-II antimicrobial activity were evaluated using the RN4220 strain. The protein binding rate of lysocin E against human plasma was determined by a rapid equilibrium dialysis device (Thermo Fisher Scientific, Waltham, MA, USA) according to the manufacturer’s instructions.

[1] = system: Bacillus subtilis JCM2499
Experimental: as §1

[2] = system: S. aureus (MRSA) MR1 (Clinical isolate)
Experimental: as §1

[3] = system: S. aureus (MRSA) MR4 (Clinical isolate)
Experimental: as §1

S. aureus (MRSA) MRSA4 = system: S. aureus (MRSA) MRSA4
Experimental: as §1

[4] = system: S. aureus (MRSA) MR2 (Clinical isolate)
Experimental: as §1

[5] = system: S. aureus (MRSA) JE2 (USA300)
Experimental: as §1

[6] = system: S. aureus Smith ATCC13709
Experimental: as §1

S. aureus Newman = system: S. aureus Newman
Experimental: as §1

[7] = system: Staphylococcus haemolyticus JCM2416
Experimental: as §1

Bacillus cereus JCM20037 = system: Bacillus cereus JCM20037
Experimental: as §1

[8] = system: Staphylococcus pseudintermedius JCM17571
Experimental: as §1

[9] = system: S. aureus (MRSA) MR6 (Clinical isolate)
Experimental: as §1

[10] = system: S. aureus (MRSA) MR5 (Clinical isolate)
Experimental: as §1

rhApoA-I ∆NM = biological target: T1, rhApoA-I ∆NM (Homo sapiens, UniProt P02647, DEL170-184); experiment: Bio-layer interferometry, binding to rhApoA-I ∆NM variant; conditions: BLI; biotinylated lysocin E on streptavidin biosensor; 2.5 µM protein
T1 construct: 1 65 146 160 185 243; made in house; host or cells: E. coli BL21(DE3)/pLysS, pET20b (pET-hApo∆NM)
T1 sequence (P02647 with tags, fused parts or gaps DEL170-184): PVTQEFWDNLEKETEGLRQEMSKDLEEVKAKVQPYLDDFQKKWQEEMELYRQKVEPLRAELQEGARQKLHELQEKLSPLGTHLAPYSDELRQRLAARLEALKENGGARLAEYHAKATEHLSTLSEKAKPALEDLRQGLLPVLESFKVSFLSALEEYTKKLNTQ
Experimental: Bio-layer interferometry (BLI) measurements were performed on a BLItz system (ForteBio, Fremont, CA, USA) maintained at room temperature. Kinetic analyses were performed using BLItz Pro ver. 1.2.1.5 (ForteBio). The biotinylated ligand, diluted to 0.1 mg ml^−1 in BLItz buffer (0.05% [v/v] Tween-20 in PBS), was immobilised on a streptavidin biosensor and the kinetic analysis was performed by running BLItz buffer for 300 s each, in the presence and absence of analyte for association and dissociation, respectively. Biotinylated menaquinone (5) and biotinylated lysocin E derivatives (3 and 4) were synthesised as described in the Supplementary Information (Supplementary Figs. 7–15).

MRSA = experiment: microbe, parasite or virus in culture
Experimental: as §1

fraction unbound (in vitro): < 0.01
MIC of lysocin E, Serum 0% (A) [1]: 2 µg/mL
MIC of lysocin E, Serum 10% (B) [1]: 0.25 µg/mL
MIC of lysocin E, Serum 0% (A) [2]: 4 µg/mL
MIC of lysocin E, Serum 10% (B) [2]: 0.13 µg/mL
MIC of lysocin E, Serum 0% (A) [3]: 4 µg/mL
MIC of lysocin E, Serum 10% (B) [3]: 0.13 µg/mL
MIC of lysocin E, Serum 0% (A) (S. aureus (MRSA) MRSA4): 4 µg/mL
MIC of lysocin E, Serum 10% (B) (S. aureus (MRSA) MRSA4): 0.25 µg/mL
MIC of lysocin E, Serum 0% (A) [4]: 2 µg/mL
MIC of lysocin E, Serum 10% (B) [4]: 0.13 µg/mL
MIC of lysocin E, Serum 0% (A) [5]: 4 µg/mL
MIC of lysocin E, Serum 10% (B) [5]: 0.13 µg/mL
MIC of lysocin E, Serum 0% (A) [6]: 2 µg/mL
MIC of lysocin E, Serum 10% (B) [6]: 0.063 µg/mL
MIC of lysocin E, Serum 0% (A) (S. aureus Newman): 4 µg/mL
MIC of lysocin E, Serum 10% (B) (S. aureus Newman): 0.13 µg/mL
MIC of lysocin E, Serum 0% (A) (Bacillus cereus JCM20037): 2 µg/mL
MIC of lysocin E, Serum 10% (B) (Bacillus cereus JCM20037): 0.50 µg/mL
MIC of lysocin E, Serum 0% (A) [8]: 4 µg/mL
MIC of lysocin E, Serum 10% (B) [8]: 0.13 µg/mL
MIC of lysocin E, Serum 0% (A) [9]: 4 µg/mL
MIC of lysocin E, Serum 10% (B) [9]: 0.13 µg/mL
MIC of lysocin E, Serum 0% (A) [10]: 4 µg/mL
MIC of lysocin E, Serum 10% (B) [10]: 0.13 µg/mL
Kd (rhApoA-I ∆NM): 5.6 µM
Antimicrobial activity (MIC) (MRSA): 4 µg/mL
MIC in 10% bovine serum (MRSA): 0.063 µg/mL (≈ 0.0389 µM)
SMILES: CC[C@H](C)[C@@H]1NC(=O)[C@@H](Cc2c[nH]c3ccccc23)NC(=O)[C@@H](CCC(N)=O)NC(=O)[C@H](CCC(=O)O)NC(=O)[C@@H](CCCNC(=N)N)NC(=O)[C@H](CC(C)C)NC(=O)[C@@H](Cc2ccccc2)N(C)C(=O)CNC(=O)[C@H](CO)NC(=O)[C@@H](CCCNC(=N)N)NC(=O)[C@@H](NC(=O)C[C@H](O)CC(C)C)[C@@H](C)OC(=O)[C@H]([C@@H](C)O)NC1=O [Lysocin E, lysocin E] ({Hexanoyl(3R-OH,5-Me)}-T[dR]SG[dNMeF]L[dR]E[dQ][dW]IT; ester 1-C)
MIC of lysocin E, Serum 0% (A) [7]: 2 µg/mL
MIC of lysocin E, Serum 10% (B) [7]: 0.0078 µg/mL
